Reference: the SangsterLogP compilation

Structure (SMILES)	logP
CCCCOCCCC	3.21
CCOCCOCC	0.66
COCCOCCOC	-0.36
CCCCOCCO	0.76
CCCCCCOCCO	1.86
CCOC(=O)CCC(=O)OCC	1.19
CCCCOCCOCCOCCCC	1.92
COCCOC	-0.21
CCOCCOCCOCC	0.39
CCOCCOCCO	-0.54
CCCOC(=O)CCC(=O)OCCC	2.16
COC(=O)CCC(=O)OC	0.19
CCCCOCCOCCCC	2.48
CCCCCCOCCOCCO	1.7
CCCCOCCOCCO	0.56
